Data as given in patent US5594144A, “Tropolone derivatives and pharmaceutical composition thereof for preventing and treating ischemic diseases” (The Upjohn Company, priority 1990, dated 1997).

Assays:
[1] = tested on: Brain microsomal fractions; experiment: in vitro Anti-lipid peroxidation effect (TBAR production, Fe3+-ADP/NADPH); assay type: biochemical, rat (SD strain, male)
Method: 1. in vitro Anti-lipid peroxidation effect
Brain microsomal fractions were prepared from male rats of SD strain, and a portion (0.2 mg protein) was incubated at 37° C. for 15 minutes with a mixture of Fe^3+ (0.1 mM)--ADP (0.5 mM) in the presence or absence of the test compound, in final volume of 1 ml of 10 mM HEPES, 150 mM KCl, 0.2 mM NADPH, pH 7.4. After incubation, 1.5 ml of TCA-TBA-HCl reagent (16.7% trichloroacetic acid, 0.4% thiobarbituric acid, 0.278N hydrochloric acid) was added and the reaction mixture was heated in a boiling water for 15 minutes. After cooling in ice-bath, the reaction mixture was centrifuged, and the absorbance of the supernatant at 535 nm was measured. The amount of thiobarbituric acid reactive substance (TBAR) was obtained by calculation using an extinction coefficient of 1.56×10^5 […]. […] The results are shown in Table 1A for compounds of the formulas IA, IB, and IC, respectively. The compounds with highest inhibition rate have the greatest anti-lipid peroxidation effect.

[2] = tested on: pig right coronary artery; experiment: in vitro Ca-antagonism (high K+ induced 45Ca-influx); assay type: cell-based; conditions: Sus scrofa, K+ 75 mM
Method: 2. in vitro Ca-antagonism
A strip of pig right coronary artery was depolarized with high K^+ (75 mM) for 30 minutes to induce voltage dependent ^45 Ca-influx. The extracellular ^45 Ca was chelated by adding EGTA and removed by washing, then the strip was lysed at 100° C. ^45 Ca in this lysate was measured as intracellular ^45 Ca by a scintillation counter. The concentration of the test compound was 10^-7, 10^-6, 10^-5 M, and applied until depolarization by K^+ was completed. Ratio of inhibition at various concentrations of the test compounds for increasing the intracellular ^45 Ca by K^+ was determined. The compound with high inhibition ratio has strong Ca-antagonism.

Row | SMILES | Anti-Lipid Peroxidation (% inhibition) 10 μM [1] [%] | Anti-Lipid Peroxidation (% inhibition) 50 μM [1] [%] | inhibition at 10 µM [2] [%]
1 | CC(C)c1ccc(C2Sc3ccccc3N2CCc2ccccc2)c(=O)c(N2CCNCC2)c1 (stereo not drawn) [Compound 15B, 2-[2'-oxo-3'-(1-piperazinyl)-5'-isopropyl-3',5',7'-cycloheptatrienyl]-3-phenethylbenzothiazoline] | 93.0 | 94.4 | –
2 | CCN(CCN(C)C)c1cc(C(C)C)ccc(CN2CCN(C(c3ccc(F)cc3)c3ccc(F)cc3)CC2)c1=O [Compound 6C, 7-[4-(4,4'-difluorobenzhydryl)piperazino-1-methyl]-2-(N-2-dimethylaminoethyl-N-ethylamino)-4-isopropyl-2,4,6-cycloheptatrien-1-one] | 35.9 | 91.5 | 87
3 | COc1cc(C(C)C)ccc(C2Sc3ccccc3N2CCCN2CCN(C(c3ccc(F)cc3)c3ccc(F)cc3)CC2)c1=O (stereo not drawn) [Compound 13B, 2-(2'-oxo-3'-methoxy-5'-isopropyl-3',5',7'-cycloheptatrienyl)-3-{3-[4-(4',4'-difluorobenzhydryl)piperazin-1-yl)propyl}benzothiazoline] | 91.8 | 94.4 | –
4 | CCOc1cc(C(C)C)ccc(CN2CCN(C(c3ccc(F)cc3)c3ccc(F)cc3)CC2)c1=O [Compound 12A, 7-[4-(4,4'-difluorobenzhydryl)piperazino-1-methyl]-2-ethoxy-4-isopropyl-2,4,6-cycloheptatrien-1-one] | 21.4 | 50.4 | 72
5 | COc1cc(C(C)C)ccc(CN2CCN(C(c3ccc(F)cc3)c3ccc(F)cc3)CC2C)c1=O (stereo not drawn) [Compound 22C, 7-[4-(4,4'-difluorobenzhydryl)-2-methylpiperazino-1-methyl]-4-isopropyl-2-methoxy-2,4,6-cycloheptatrien-1-one] | 32.8 | 88.7 | 66
6 | CC(C)c1ccc(CN2CCN(C(c3ccc(F)cc3)c3ccc(F)cc3)CC2)c(=O)c(NCCc2ccccn2)c1 [Compound 11C, 7-[4-(4,4'-difluorobenzhydryl)piperazino-1-methyl]-4-isopropyl-2-[N-2-(2-pyridyl)ethylamino]-2,4,6-cycloheptatrien-1-one] | 32.2 | 89.8 | 62
7 | CC(C)c1ccc(CN2CCN(C(c3ccc(F)cc3)c3ccc(F)cc3)CC2)c(=O)c(NCCO)c1 [Compound 13C, 7-[4-(4,4'-difluorobenzhydryl)piperazino-1-methyl]-2-(N-2-hydroxyethylamino)-4-isopropyl-2,4,6-cycloheptatrien-1-one] | 36.9 | 89.5 | 90
8 | COc1cc(C(C)C)ccc(C2Sc3ccccc3N2Cc2cccnc2)c1=O (stereo not drawn) [Compound 5B, 2-(2'-oxo-3'-methoxy-5'-isopropyl-3',5',7'-cycloheptatrienyl)-3-(3-picolyl)benzothiazoline] | 95.9 | 100 | –
9 | COc1ccc(C(c2ccc(Cl)cc2)N2CCN(Cc3ccc(C(C)C)cc(OC)c3=O)CC2)cc1 (stereo not drawn) [Compound 10A, 7-[4-(4-chloro-4'-methoxybenzhydryl)piperazin-1-methyl]-4-isopropyl-2-methoxy-2,4,6-cycloheptatrien-1-one] | 24.0 | 81.6 | 53
10 | COc1cc(C(C)C)ccc(CN2CCCN(C(c3ccc(F)cc3)c3ccc(F)cc3)CC2)c1=O [Compound 23C, 7-[4-(4,4'-difluorobenzhydryl)hexahydro-1H-1,4-diazepin-1-ylmethyl]-4-isopropyl-2-methoxy-2,4,6-cycloheptatrien-1-one] | 21.6 | 90.7 | 86
11 | CC(C)c1ccc(CN2CCN(C(c3ccc(F)cc3)c3ccc(F)cc3)CC2)c(=O)c(NCCN)c1 [Compound 4C, 2-(N-2-aminoethylamino)-7-[4-(4,4'-difluorobenzhydryl)piperazino-1-methyl]-4-isopropyl-2,4,6-cycloheptatrien-1-one] | 45.2 | 92.9 | 54
12 | COc1cc(C(C)C)ccc(C(c2ccccc2)N2CCN(C(c3ccccc3)c3ccc(Cl)cc3)CC2)c1=O (stereo not drawn) [Compound 3A, 7-{1-[4-(4-chlorobenzhydryl)piperazinomethyl]-α-phenyl}-4-isopropyl-2-methoxy-2,4,6-cycloheptatrien-1-one] | 13.8 | 16.3 | 0
13 | CC(C)c1ccc(CN2CCN(C(c3ccc(F)cc3)c3ccc(F)cc3)CC2)c(=O)c(N2CCOCC2)c1 [Compound 18C, 7-[4-(4,4'-difluorobenzhydryl)piperazino-1-methyl]-4-isopropyl-2-morpholino-2,4,6-cycloheptatrien-1-one] | 26.7 | 41.2 | 84
14 | CC(C)c1ccc(C2Sc3ccccc3N2CCc2ccccc2)c(=O)c(NCCN(C)C)c1 (stereo not drawn) [Compound 16B] | 91.2 | 95.1 | –
15 | COc1cc(C(C)C)ccc(C(C)N2CCN(C(c3ccccc3)c3ccc(Cl)cc3)CC2)c1=O (stereo not drawn) [Compound 4A, 7-{1-[4-(4-chlorobenzhydryl)]piperazinomethyl-α-methyl-}-4-isopropyl-2-methoxy-2,4,6-cycloheptatrien-1-one] | 25.8 | 75.1 | 45
16 | CCCCOc1cc(C(C)C)ccc(CN2CCN(C(c3ccc(F)cc3)c3ccc(F)cc3)CC2)c1=O [Compound 13A, 2-butoxy-7-[4-(4,4'-difluorobenzhydryl)piperazino-1-methyl]-4-isopropyl-2,4,6-cycloheptatrien-1-one] | 23.1 | 27.4 | 38
17 | COc1cc(C(C)C)ccc(C2Sc3ccccc3N2Cc2ccc3ccccc3n2)c1=O (stereo not drawn) [Compound 9B, 2-(2'-oxo-3'-methoxy-5'-isopropyl-3',5',7'-cycloheptatrienyl)-3-(2-quinolyl)methylbenzothiazoline] | 94.9 | 96.6 | –
18 | COc1cc(C(C)C)ccc(C2Sc3ccccc3N2Cc2ccccn2)c1=O (stereo not drawn) [Compound 4B, 2-(2'-oxo-3'-methoxy-5'-isopropyl-3',5',7'-cycloheptatrienyl)-3-(2-picolyl)benzothiazoline] | 95.7 | 99.3 | –
19 | CC(C)c1ccc(CN2CCN(C(c3ccc(F)cc3)c3ccc(F)cc3)CC2)c(=O)c(OCCCN(C)CCc2ccccc2)c1 [Compound 18A, 7-[4-(4,4'-difluorobenzhydryl)piperazino-1-methyl]-2-[3-(N-methyl-N-phenethylamino)propoxy]-4-isopropyl-2,4,6-cycloheptatrien-1-one] | 37.0 | 93.1 | –
20 | COc1cc(C(C)C)ccc(C2Sc3ccccc3N2CCc2ccccn2)c1=O (stereo not drawn) [Compound 7B, 2-(2'-oxo-3'-methoxy-5'-isopropyl-3',5',7'-cycloheptatrienyl)-3-[2-(2-pyridyl)ethyl]benzothiazoline] | 91.9 | 94.3 | –
21 | COc1ccc(CCN2c3ccccc3SC2c2ccc(C(C)C)cc(OC)c2=O)cc1OC (stereo not drawn) [Compound 8B, 2-(2'-oxo-3'-methoxy-5'-isopropyl-3',5',7'-cycloheptatrienyl)-3-[2-(3,4-dimethoxyphenyl)ethyl]benzothiazoline] | 93.4 | 93.8 | –
